# Legend:
# [1] = test system: B. subtilis; assay: Radial diffusion assay; assay type: cell-based, Bacillus subtilis (ATCC, 11774); details: 5 µl of 500 µM per 3 mm well, 37 °C, mean ± SD
# Description: (§1) The microbial strains used in this study were Bacillus subtilis (ATCC, 11774), Candida albicans (TIMM, 1768), Enterococcus faecalis (ATCC, 33186), Escherichia coli (ATCC, 11775), Klebsiella pneumoniae (ATCC, 13883), Methicillin-resistant Staphylococcus aureus (ATCC, BAA-41), Pseudomonas aeruginosa (ATCC, 10145), Salmonella enterica (ATCC, 14028), Serratia marcescens (ATCC, 13880), Staphylococcus aureus (ATCC, 25923) and Vibrio parahaemolyticus (ATCC, 17802). All microbial strains were cultivated overnight at 37 °C and 200 rpm, then subcultured and incubated for 3 h under the same incubation conditions to obtain the mid-logarithmic growth phase. The cultivated cells were washed twice with 10 mM Tris–HCl containing 5 mM D-glucose at pH 7.4 and suspended in the same buffer to be used in different assays, as previously described.
# (§2) The antimicrobial activity spectra of the selected cryptides were screened against all the mentioned microbial pathogens, except V. parahaemolyticus, by radial diffusion assay as previously described, with slight modifications. […] The plates were then incubated for 18 h, and the antimicrobial activities were measured in the absolute unit (AU), as previously described. […]
# (§3) plate. The plates were then incubated for 12 h at 37 °C and antimicrobial activities were measured in the term of absolute unit (A.U). […]
# [2] = test system: S. aureus; assay: Radial diffusion assay; assay type: cell-based, Staphylococcus aureus (ATCC, 25923); details: 5 µl of 500 µM per 3 mm well, 37 °C, mean ± SD
# Description: as §1, §2, §3
# [3] = test system: E. faecalis; assay: Radial diffusion assay; assay type: cell-based, Enterococcus faecalis (ATCC, 33186); details: 5 µl of 500 µM per 3 mm well, 37 °C, mean ± SD
# Description: as §1, §2, §3
# [4] = test system: E. coli K-1; assay: Radial diffusion assay; assay type: cell-based, Escherichia coli (ATCC, 11775); details: 5 µl of 500 µM per 3 mm well, 37 °C, mean ± SD
# Description: as §1, §2, §3
# [5] = test system: K. pneumoniae; assay: Radial diffusion assay; assay type: cell-based, Klebsiella pneumoniae (ATCC, 13883); details: 5 µl of 500 µM per 3 mm well, 37 °C, mean ± SD
# Description: as §1, §2, §3
# [6] = test system: S. enterica; assay: Radial diffusion assay; assay type: cell-based, Salmonella enterica (ATCC, 14028); details: 5 µl of 500 µM per 3 mm well, 37 °C, mean ± SD
# Description: as §1, §2, §3
# [7] = test system: MRSA; assay: Radial diffusion assay; assay type: cell-based, Methicillin-resistant Staphylococcus aureus (ATCC, BAA-41); details: 5 µl of 500 µM per 3 mm well, 37 °C, mean ± SD
# Description: as §1, §2, §3
# [8] = test system: S. marcescens; assay: Radial diffusion assay; assay type: cell-based, Serratia marcescens (ATCC, 13880); details: 5 µl of 500 µM per 3 mm well, 37 °C, mean ± SD
# Description: as §1, §2, §3
# [9] = test system: S. epidermidis; assay: Radial diffusion assay; assay type: cell-based; details: 5 µl of 500 µM per 3 mm well, 37 °C, mean ± SD
# Description: The antimicrobial activity spectra of the selected cryptides were screened against all the mentioned microbial pathogens, except V. parahaemolyticus, by radial diffusion assay as previously described, with slight modifications. We aimed to test different categories of pathogens on the WHO global priority due to their growing resistance to the available antibiotics such as P. aeruginosa, E. coli and K. pneumoniae in the critical category and Salmonella ssp. and S. aureus in the high category. Briefly, a total of 4 × 10^6 CFU of each pathogen was inoculated in 10 mL of an underlay agarose gel [0.03% w/v tryptone soy broth (TSB) medium, 1% w/v agarose and 0.02% v/v Tween 20 in 10 mM Tris–HCl] that was then poured into a 100-mm petri dish. After agarose solidification, 3 mm-diameter wells were punched by a sterile cork borer and 5 µl of 500 µM stock solution from each cryptide was added to each well. Melittin and acidified water were used as positive and negative controls, respectively. […] The plates were then incubated for 18 h, and the antimicrobial activities were measured in the absolute unit (AU), as previously described. […]
# as §3
# [10] = test system: P. aeruginosa; assay: Radial diffusion assay; assay type: cell-based, Pseudomonas aeruginosa (ATCC, 10145); details: 5 µl of 500 µM per 3 mm well, 37 °C, mean ± SD
# Description: as §1, §2, §3
# [11] = test system: C. albicans; assay: Radial diffusion assay; assay type: cell-based, Candida albicans (TIMM, 1768); details: 5 µl of 500 µM per 3 mm well, 37 °C, mean ± SD
# Description: as §1, §2, §3
# [12] = test system: Caco-2; assay type: cell-based, human; details: 24 h, serum-free medium, MTT, 37 °C, 5% CO2; mean ± SD
# Procedure: (§4) The used mammalian cell lines in our study were colorectal adenocarcinoma (Caco2, ATCC-HTB-37), colorectal carcinoma (HCT 116, ATCC-CCL-247), lung carcinoma (A549, ATCC- CCL-185), cervical cancer cells (HeLa, ATCC-CCL-2), neuroblastoma (SH-SY5Y, ATCC- CRL-2266), rhabdomyosarcoma (RD, ATCC- CCL-136) and human embryonic kidney cells (HEK 293, ATCC- CRL-1573). All the cells were maintained into Dulbecco’s Modified Eagle’s Medium (DMEM) supplemented with 10% heat-inactivated fetal bovine serum, 2 mM L-Glutamine, 100 U/ml penicillin–streptomycin (Pen/Strep) at 37 °C in 5% CO2 humidified incubator.
# (§5) First, the cytotoxic effect of 24 h serum deprivation on all the selected cell lines was evaluated by MTT assay, following standard protocols. Briefly, cells were seeded and maintained at 37 °C and 5% CO2 in 24-well plates until they reached 75–80% confluency (zero time). Following washing twice with 1X PBS, cells were incubated in a serum-free medium for 24 h, under the same incubation conditions. The cell viability percentages were calculated and compared to zero time as 100% viability to nullify any possible effects of serum deprivation. Thence, the cell viability percentage of each cell line in response to 24 h treatment with different concentrations of each cryptide in serum-free medium was calculated. […] All the measured cell viability percentages were normalised against the corresponding negative controls.
# [13] = test system: HCT 116; assay type: cell-based, human; details: 24 h, serum-free medium, MTT, 37 °C, 5% CO2; mean ± SD
# Procedure: as §4, §5
# [14] = test system: HeLa; assay type: cell-based, human; details: 24 h, serum-free medium, MTT, 37 °C, 5% CO2; mean ± SD
# Procedure: as §4, §5
# [15] = assay type: cell-based; details: 24 h, serum-free medium, MTT, 37 °C, 5% CO2; mean ± SD; read-out: IC50 (µM) A459
# Procedure: as §4, §5
# [16] = test system: RD; assay type: cell-based; details: 24 h, serum-free medium, MTT, 37 °C, 5% CO2; mean ± SD
# Procedure: as §4, §5
# [17] = test system: SH-SY5Y; assay type: cell-based; details: 24 h, serum-free medium, MTT, 37 °C, 5% CO2; mean ± SD
# Procedure: as §4, §5
# [18] = test system: HEK-293; assay: MTT cytotoxicity on normal cells; assay type: cell-based, human; details: 25 µM (highest tested concentration), 24 h, serum-free medium
# Procedure: as §4, §5
# [19] = test system: bacterial pathogens; details: salt tolerance; cited from earlier work
# Procedure: For example, Pleurocidin is an AMP isolated from a marine flatfish Pseudopleuronectes americanus (Winter flounder) and has been reported to be active against bacterial pathogens at high NaCl concentrations, up to 625 mM[15]. This potential salt-insensi ...
Molecule,Antimicrobial activity (inhibition zone) B. subtilis [1],Antimicrobial activity (inhibition zone) S. aureus [2],Antimicrobial activity (inhibition zone) E. faecalis [3],Antimicrobial activity (inhibition zone) E. coli K-1 [4],Antimicrobial activity (inhibition zone) K. pneumoniae [5],Antimicrobial activity (inhibition zone) S. enterica [6],Antimicrobial activity (inhibition zone) MRSA [7],Antimicrobial activity (inhibition zone) S. marcescens [8],Antimicrobial activity (inhibition zone) S. epidermidis [9],Antimicrobial activity (inhibition zone) P. aeruginosa [10],Antifungal activity (inhibition zone) C. albicans [11],IC50 [12],IC50 [13],IC50 [14],IC50 [15],IC50 [16],IC50 [17],Cell death of HEK-293 [18],NaCl concentration up to which active against bacterial pathogens [19]
"CC[C@H](C)[C@H](NC(=O)CN)C(=O)NCC(=O)N[C@@H](C)C(=O)N[C@H](C(=O)N[C@@H](CC(C)C)C(=O)N[C@@H](CCCCN)C(=O)N[C@H](C(=O)N[C@@H](CC(C)C)C(=O)N[C@H](C(=O)N[C@H](C(=O)NCC(=O)N[C@@H](CC(C)C)C(=O)N1CCC[C@H]1C(=O)N[C@@H](C)C(=O)N[C@@H](CC(C)C)C(=O)N[C@H](C(=O)N[C@@H](CO)C(=O)N[C@@H](Cc1c[nH]c2ccccc12)C(=O)N[C@H](C(=O)N[C@@H](CCCCN)C(=O)N[C@@H](CCCNC(=N)N)C(=O)N[C@@H](CCCCN)C(=O)N[C@@H](CCCNC(=N)N)C(=O)N[C@@H](CCC(N)=O)C(=O)N[C@@H](CCC(N)=O)C(N)=O)[C@@H](C)CC)[C@@H](C)CC)[C@@H](C)O)[C@@H](C)O)C(C)C)C(C)C [Melittin, reference compound]",21.8± 3.1 A.U.,41.5 ± 2.5 A.U.,11.8 ± 1.3 A.U.,6.5 ± 0.9 A.U.,11.8 ± 1.3 A.U.,7.8 ± 2 A.U.,11.8 ± 1.3 A.U.,7.7 ± 1 A.U.,10.4 ± 1.2 A.U.,6 ± 0.9 A.U.,14.2 ± 1.4 A.U.,1.2 ± 0.9 µM,2.1 ± 0.2 µM,0.9 ± 0.1 µM,2.3 ± 0.6 µM,2.4 ± 0.5 µM,1.7 ± 1 µM,78.7%,–
"Pleurocidin (GWGSFFKKAAHVGKHVGKAALTHYL; UniProt P81941 23-47, looked up) [AMP isolated from a marine flatfish Pseudopleuronectes americanus (Winter flounder)]",–,–,–,–,–,–,–,–,–,–,–,–,–,–,–,–,–,–,up to 625 mM

# From PMC10482825 (Scientific Reports, 2023)
